Measurements published in ChEMBL document CHEMBL4342449, “Isolation of a High-Affinity Cannabinoid for the Human CB1 Receptor from a Medicinal Cannabis sativa Variety: Δ9-Tetrahydrocannabutol, the Butyl Homologue of Δ9-Tetrahydrocannabinol” (J Nat Prod, 2020).
Calls of active or inactive are those of the source. The calls are words filed in the database; no cut-off is given here.

What was measured:
Mus musculus [1] = assay: (§1) Analgesic activity in formalin-induced nociception CD-1 mouse model assessed as reduction in pain behaviour by measuring less licking of formalin injected hind paw at 3 mg/kg, ip pretreated with compound 20 mins prior to formalin induction measured during first phase (0 to 7 mins after formalin injection) by formalin test; format: functional, organism-based
Mus musculus [2] = assay: as §1, with “lifting” for “licking”; format: functional, organism-based
Mus musculus [3] = assay: as §1, with “favoring” for “licking”; format: functional, organism-based
Mus musculus [4] = assay: as §1, with “shaking” for “licking”; format: functional, organism-based
Mus musculus [5] = assay: as §1, with “flinching” for “licking”; format: functional, organism-based
Mus musculus [6] = assay: as §1, with “second” for “first”, “(every 5 mins for 15” for “(0”, “60” for “7”; format: functional, organism-based
Mus musculus [7] = assay: as §1, with “lifting” for “licking”, “second” for “first”, “(every 5 mins for 15” for “(0”, “60” for “7”; format: functional, organism-based
Mus musculus [8] = assay: as §1, with “favoring” for “licking”, “second” for “first”, “(every 5 mins for 15” for “(0”, “60” for “7”; format: functional, organism-based
Mus musculus [9] = assay: as §1, with “shaking” for “licking”, “second” for “first”, “(every 5 mins for 15” for “(0”, “60” for “7”; format: functional, organism-based
Mus musculus [10] = assay: as §1, with “flinching” for “licking”, “second” for “first”, “(every 5 mins for 15” for “(0”, “60” for “7”; format: functional, organism-based
Mus musculus [11] = assay: as §1, with “induction co-treated with AM251 and” for “induction”, “every 5” for “during first phase (0 to 7”, “for 1 hr” for “after formalin injection)”; format: functional, organism-based
Mus musculus [12] = assay: as §1, with “lifting” for “licking”, “induction co-treated with AM251 and” for “induction”, “every 5” for “during first phase (0 to 7”, “for 1 hr” for “after formalin injection)”; format: functional, organism-based
Mus musculus [13] = assay: as §1, with “favoring” for “licking”, “induction co-treated with AM251 and” for “induction”, “every 5” for “during first phase (0 to 7”, “for 1 hr” for “after formalin injection)”; format: functional, organism-based
Mus musculus [14] = assay: as §1, with “shaking” for “licking”, “induction co-treated with AM251 and” for “induction”, “every 5” for “during first phase (0 to 7”, “for 1 hr” for “after formalin injection)”; format: functional, organism-based
Mus musculus [15] = assay: as §1, with “flinching” for “licking”, “induction co-treated with AM251 and” for “induction”, “every 5” for “during first phase (0 to 7”, “for 1 hr” for “after formalin injection)”; format: functional, organism-based
Mus musculus [16] = assay: as §1, with “induction co-treated with AM630 and” for “induction”, “every 5” for “during first phase (0 to 7”, “for 1 hr” for “after formalin injection)”; format: functional, organism-based
Mus musculus [17] = assay: as §1, with “lifting” for “licking”, “induction co-treated with AM630 and” for “induction”, “every 5” for “during first phase (0 to 7”, “for 1 hr” for “after formalin injection)”; format: functional, organism-based
Mus musculus [18] = assay: as §1, with “favoring” for “licking”, “induction co-treated with AM630 and” for “induction”, “every 5” for “during first phase (0 to 7”, “for 1 hr” for “after formalin injection)”; format: functional, organism-based
Mus musculus [19] = assay: as §1, with “shaking” for “licking”, “induction co-treated with AM630 and” for “induction”, “every 5” for “during first phase (0 to 7”, “for 1 hr” for “after formalin injection)”; format: functional, organism-based
Mus musculus [20] = assay: as §1, with “flinching” for “licking”, “induction co-treated with AM630 and” for “induction”, “every 5” for “during first phase (0 to 7”, “for 1 hr” for “after formalin injection)”; format: functional, organism-based
Mus musculus [21] = assay: In vivo Cannabi-mimetic activity in C57BL6/J mouse assessed as alteration on the spontaneous activity at 10 mg/kg, ip measured for 15 mins by open field test (reference value: 3283 +/- 390.5 cm); format: functional
Mus musculus [22] = assay: In vivo Cannabi-mimetic activity in C57BL6/J mouse assessed as alteration on the spontaneous activity at 20 mg/kg, ip measured for 15 mins by open field test (reference value: 3283 +/- 390.5 cm); format: functional
Mus musculus [23] = assay: In vivo Cannabi-mimetic activity in C57BL6/J mouse assessed as catalepsy bar at 10 mg/kg, ip by bar test (reference value: 3.5 +/- 0.65 sec); format: functional
Mus musculus [24] = assay: In vivo Cannabi-mimetic activity in C57BL6/J mouse assessed as catalepsy bar at 20 mg/kg, ip by bar test (reference value: 3.5 +/- 0.65 sec); format: functional
Mus musculus [25] = assay: In vivo Cannabi-mimetic activity in C57BL6/J mouse assessed as antinociceptive effect by measuring licking of hind paws at 10 mg/kg, ip measured for 85 mins by hot plate test (reference value: 10.15 +/- 0.70 sec); format: functional
Mus musculus [26] = assay: In vivo Cannabi-mimetic activity in C57BL6/J mouse assessed as antinociceptive effect by measuring licking of hind paws at 20 mg/kg, ip measured for 85 mins by hot plate test (reference value: 10.15 +/- 0.70 sec); format: functional
Mus musculus [27] = assay: In vivo Cannabi-mimetic activity in C57BL6/J mouse assessed as rectal temperature at 10 mg/kg, ip measured after 50 mins (reference value: 0.53 +/- 0.21 degreeC); format: functional
Mus musculus [28] = assay: In vivo Cannabi-mimetic activity in C57BL6/J mouse assessed as rectal temperature at 20 mg/kg, ip measured after 50 mins (reference value: 0.53 +/- 0.21 degreeC); format: functional
Cannabinoid receptor 1 = Cannabinoid receptor 1 (Homo sapiens, UniProt P21554); assay: Binding affinity to human CB1 receptor
Sequence of Cannabinoid receptor 1 (P21554 whole entry): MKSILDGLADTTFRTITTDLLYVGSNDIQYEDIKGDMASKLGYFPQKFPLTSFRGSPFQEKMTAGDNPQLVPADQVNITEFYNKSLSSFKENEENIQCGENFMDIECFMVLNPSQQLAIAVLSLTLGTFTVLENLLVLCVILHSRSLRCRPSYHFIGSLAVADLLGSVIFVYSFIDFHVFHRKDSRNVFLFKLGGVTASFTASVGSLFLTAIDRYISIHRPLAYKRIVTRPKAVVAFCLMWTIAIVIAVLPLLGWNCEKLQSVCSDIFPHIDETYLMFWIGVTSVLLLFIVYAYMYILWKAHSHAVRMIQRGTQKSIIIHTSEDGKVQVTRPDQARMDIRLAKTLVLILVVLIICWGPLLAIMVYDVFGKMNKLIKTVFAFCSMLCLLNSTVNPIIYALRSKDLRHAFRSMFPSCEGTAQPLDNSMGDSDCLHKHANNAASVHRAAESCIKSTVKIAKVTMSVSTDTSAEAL

Compound: CCCCc1cc(O)c2c(c1)OC(C)(C)[C@@H]1CCC(C)=C[C@@H]21
- Activity (Mus musculus [1]): Active
- Activity (Mus musculus [2]): Active
- Activity (Mus musculus [3]): Active
- Activity (Mus musculus [4]): Active
- Activity (Mus musculus [5]): Active
- Activity (Mus musculus [6]): Active
- Activity (Mus musculus [7]): Active
- Activity (Mus musculus [8]): Active
- Activity (Mus musculus [9]): Active
- Activity (Mus musculus [10]): Active
- Activity (Mus musculus [11]): inactive
- Activity (Mus musculus [12]): inactive
- Activity (Mus musculus [13]): inactive
- Activity (Mus musculus [14]): inactive
- Activity (Mus musculus [15]): inactive
- Activity (Mus musculus [16]): inactive
- Activity (Mus musculus [17]): inactive
- Activity (Mus musculus [18]): inactive
- Activity (Mus musculus [19]): inactive
- Activity (Mus musculus [20]): inactive
- Activity (Mus musculus [21]): 3220 cm
- Activity (Mus musculus [22]): 3591 cm
- Time (Mus musculus [23]): 3 s
- Time (Mus musculus [24]): 13 s
- Time (Mus musculus [25]): 7.94 s
- Time (Mus musculus [26]): 17.5 s
- Activity (Mus musculus [27]): -0.28 °C
- Activity (Mus musculus [28]): 0.4 °C

Compound: CCCc1cc(O)c2c(c1)OC(C)(C)[C@@H]1CCC(C)=C[C@@H]21 [TETRAHYDROCANNABIVARIN]
- Ki (Cannabinoid receptor 1): 75.4 nM
